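Step 1: Grow cells in 96-well plates. Step 2: Expose to compound for 48 hours at 5 concentrations. Step 3: Interpolate endpoints linearly; if unreached, use highest concentration. The concentration for 50% growth inhibition is given as GI50.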 The source made the active and inactive calls. No stated cut-off is given here; in the data, active = GI50 up to about 1.1 µM and inactive = higher.
Columns and labels:
Experiment in all cases: inhibition of tumour cell growth, NCI panel, 48 h
HCC 2998 = test system: HCC 2998
RXF 393 = test system: RXF 393
MOLT-4 = test system: MOLT-4
SK-MEL-5 = test system: SK-MEL-5
LOX IMVI = test system: LOX IMVI
HCT-15 = test system: HCT-15
SR = test system: SR
SF-268 = test system: SF-268
HL-60 = test system: HL-60
TK-10 = test system: TK-10
U-251 = test system: U-251
OVCAR-8 = test system: OVCAR-8
COLO 205 = test system: COLO 205
SF-295 = test system: SF-295
NCI-H522 = test system: NCI-H522
SK-MEL-2 = test system: SK-MEL-2

Row | Structure (SMILES) | GI50 (HCC 2998) | GI50 (RXF 393) | GI50 (MOLT-4) | GI50 (SK-MEL-5) | GI50 (LOX IMVI) | GI50 (HCT-15) [µM] | GI50 (SR) | GI50 (SF-268) | GI50 (HL-60) | GI50 (TK-10) | GI50 (U-251) | GI50 (OVCAR-8) | GI50 (COLO 205) | GI50 (SF-295) | GI50 (NCI-H522) | GI50 (SK-MEL-2)
1 | C#CCSc1nc(N)c2ncn(C3OC(CO)C(O)C3O)c2n1 (stereo unspecified) | > 100 µM (inactive) | > 100 µM (inactive) | > 100 µM (inactive) | > 100 µM (inactive) | > 100 µM (inactive) | > 100 | > 100 µM (inactive) | > 100 µM (inactive) | > 100 µM (inactive) | > 100 µM (inactive) | > 100 µM (inactive) | > 100 µM (inactive) | > 100 µM (inactive) | > 100 µM (inactive) | > 100 µM (inactive) | –
2 | Cc1ccc(/C=C/C(=O)c2sc(-c3nc(C)c(C(=O)/C=C/c4ccc(C)cc4)s3)nc2C)cc1 | > 100 µM (inactive) | > 100 µM (inactive) | > 100 µM (inactive) | > 100 µM (inactive) | > 100 µM (inactive) | > 100 | – | > 100 µM (inactive) | > 100 µM (inactive) | > 100 µM (inactive) | > 100 µM (inactive) | > 100 µM (inactive) | > 100 µM (inactive) | > 100 µM (inactive) | 97.5 µM (inactive) | > 100 µM (inactive)
3 | C/C(CCc1ccccc1)=N\NC(N)=S | > 100 µM (inactive) | 42.3 µM (inactive) | 72.8 µM (inactive) | 95.3 µM (inactive) | > 100 µM (inactive) | > 100 | 75.2 µM (inactive) | > 100 µM (inactive) | > 100 µM (inactive) | > 100 µM (inactive) | > 100 µM (inactive) | > 100 µM (inactive) | > 100 µM (inactive) | > 100 µM (inactive) | – | > 100 µM (inactive)
4 | O=c1ncccn1C1C=C(CO)C(O)C1O (stereo unspecified) | > 50 µM (inactive) | – | > 50 µM (inactive) | > 50 µM (inactive) | > 50 µM (inactive) | > 50 | – | > 50 µM (inactive) | > 50 µM (inactive) | > 50 µM (inactive) | > 50 µM (inactive) | – | > 50 µM (inactive) | > 50 µM (inactive) | > 50 µM (inactive) | > 50 µM (inactive)
5 | O=C(c1ccccc1)c1ccc(OCCOc2ccc(Nc3ccccc3)cc2)cc1 | > 100 µM (inactive) | 35.2 µM (inactive) | > 100 µM (inactive) | 21.9 µM (inactive) | > 100 µM (inactive) | 74.6 | > 100 µM (inactive) | 27.3 µM (inactive) | – | 28.6 µM (inactive) | 16.6 µM (inactive) | 32.4 µM (inactive) | > 100 µM (inactive) | 27.2 µM (inactive) | 17.8 µM (inactive) | 38.3 µM (inactive)
6 | CCOP12(OCC)NC(=O)OC1(C(F)(F)F)c1ccccc1O2 (stereo unspecified) | – | > 100 µM (inactive) | > 100 µM (inactive) | > 100 µM (inactive) | > 100 µM (inactive) | > 100 | – | > 100 µM (inactive) | > 100 µM (inactive) | > 100 µM (inactive) | – | > 100 µM (inactive) | – | > 100 µM (inactive) | > 100 µM (inactive) | > 100 µM (inactive)
7 | NC(=O)CCC(NC(=O)Cc1ccccc1)C(=O)O (stereo unspecified) | > 2470 µM (inactive) | 531 µM (inactive) | > 2470 µM (inactive) | > 2470 µM (inactive) | – | > 2470 | > 2470 µM (inactive) | 1420 µM (inactive) | > 2470 µM (inactive) | 2120 µM (inactive) | 2000 µM (inactive) | > 2470 µM (inactive) | > 2470 µM (inactive) | 1740 µM (inactive) | 841 µM (inactive) | > 2470 µM (inactive)
8 | CC1=NN(c2ccccc2)C(=O)/C1=C\c1ccc([N+](=O)[O-])cc1 | 25.6 µM (inactive) | 19.5 µM (inactive) | 21.5 µM (inactive) | 22.4 µM (inactive) | 21.1 µM (inactive) | 29.6 | – | 38.6 µM (inactive) | 23.3 µM (inactive) | 48.8 µM (inactive) | 41.3 µM (inactive) | 31.2 µM (inactive) | 17.7 µM (inactive) | 31.1 µM (inactive) | 21.8 µM (inactive) | 21.9 µM (inactive)
9 | CC(C)CN1CC(C)C(=O)NC1=O (stereo unspecified) | – | > 100 µM (inactive) | > 100 µM (inactive) | > 100 µM (inactive) | > 100 µM (inactive) | – | > 100 µM (inactive) | > 100 µM (inactive) | > 100 µM (inactive) | > 100 µM (inactive) | > 100 µM (inactive) | > 100 µM (inactive) | > 100 µM (inactive) | > 100 µM (inactive) | > 100 µM (inactive) | > 100 µM (inactive)
10 | O=C(CSc1nnc(Cc2ccccc2)o1)Nc1ccccc1 | > 100 µM (inactive) | > 100 µM (inactive) | > 100 µM (inactive) | > 100 µM (inactive) | > 100 µM (inactive) | > 100 | – | > 100 µM (inactive) | > 100 µM (inactive) | > 100 µM (inactive) | > 100 µM (inactive) | > 100 µM (inactive) | > 100 µM (inactive) | > 100 µM (inactive) | > 100 µM (inactive) | > 100 µM (inactive)
11 | C=C1CCC2(C(C)=O)COC1(C)O2 (stereo unspecified) | – | > 10 µM (inactive) | > 100 µM (inactive) | > 100 µM (inactive) | > 100 µM (inactive) | > 100 | – | – | > 100 µM (inactive) | > 100 µM (inactive) | > 100 µM (inactive) | > 100 µM (inactive) | > 100 µM (inactive) | > 100 µM (inactive) | > 10 µM (inactive) | –
12 | CCOC(=O)NC(=O)c1cn(-c2ccc(CCOC(=O)CCCCCCCCC(=O)OCCc3ccc(-n4cc(C(=O)NC(=O)OCC)c(=O)[nH]c4=O)cc3)cc2)c(=O)[nH]c1=O | > 100 µM (inactive) | > 100 µM (inactive) | > 100 µM (inactive) | > 100 µM (inactive) | > 100 µM (inactive) | > 100 | > 100 µM (inactive) | > 100 µM (inactive) | > 100 µM (inactive) | 42.8 µM (inactive) | 49.9 µM (inactive) | > 100 µM (inactive) | > 100 µM (inactive) | > 100 µM (inactive) | – | > 100 µM (inactive)
13 | COc1c(CC(C)=O)c2ccccc2n1C(C)=O | > 100 µM (inactive) | > 100 µM (inactive) | > 100 µM (inactive) | – | – | > 100 | > 100 µM (inactive) | – | > 100 µM (inactive) | – | > 100 µM (inactive) | > 100 µM (inactive) | > 100 µM (inactive) | > 100 µM (inactive) | – | > 100 µM (inactive)
14 | C/C(CC(=O)Nc1cccc(Cl)c1C)=N\NC(N)=S | > 100 µM (inactive) | > 100 µM (inactive) | > 100 µM (inactive) | > 100 µM (inactive) | > 100 µM (inactive) | – | – | > 100 µM (inactive) | > 100 µM (inactive) | > 100 µM (inactive) | > 100 µM (inactive) | > 100 µM (inactive) | > 100 µM (inactive) | > 100 µM (inactive) | 39.6 µM (inactive) | > 100 µM (inactive)

From ChEMBL document CHEMBL1201862, “PubChem BioAssay data set” (2004)
